This note sets out measurements from ChEMBL document CHEMBL5291721, “A preclinical secondary pharmacology resource illuminates target-adverse drug reaction associations of marketed drugs” (Nat Commun, 2023).

One assay has as its target T1, Progesterone receptor (Homo sapiens, UniProt P06401).
T1 sequence (P06401 whole entry): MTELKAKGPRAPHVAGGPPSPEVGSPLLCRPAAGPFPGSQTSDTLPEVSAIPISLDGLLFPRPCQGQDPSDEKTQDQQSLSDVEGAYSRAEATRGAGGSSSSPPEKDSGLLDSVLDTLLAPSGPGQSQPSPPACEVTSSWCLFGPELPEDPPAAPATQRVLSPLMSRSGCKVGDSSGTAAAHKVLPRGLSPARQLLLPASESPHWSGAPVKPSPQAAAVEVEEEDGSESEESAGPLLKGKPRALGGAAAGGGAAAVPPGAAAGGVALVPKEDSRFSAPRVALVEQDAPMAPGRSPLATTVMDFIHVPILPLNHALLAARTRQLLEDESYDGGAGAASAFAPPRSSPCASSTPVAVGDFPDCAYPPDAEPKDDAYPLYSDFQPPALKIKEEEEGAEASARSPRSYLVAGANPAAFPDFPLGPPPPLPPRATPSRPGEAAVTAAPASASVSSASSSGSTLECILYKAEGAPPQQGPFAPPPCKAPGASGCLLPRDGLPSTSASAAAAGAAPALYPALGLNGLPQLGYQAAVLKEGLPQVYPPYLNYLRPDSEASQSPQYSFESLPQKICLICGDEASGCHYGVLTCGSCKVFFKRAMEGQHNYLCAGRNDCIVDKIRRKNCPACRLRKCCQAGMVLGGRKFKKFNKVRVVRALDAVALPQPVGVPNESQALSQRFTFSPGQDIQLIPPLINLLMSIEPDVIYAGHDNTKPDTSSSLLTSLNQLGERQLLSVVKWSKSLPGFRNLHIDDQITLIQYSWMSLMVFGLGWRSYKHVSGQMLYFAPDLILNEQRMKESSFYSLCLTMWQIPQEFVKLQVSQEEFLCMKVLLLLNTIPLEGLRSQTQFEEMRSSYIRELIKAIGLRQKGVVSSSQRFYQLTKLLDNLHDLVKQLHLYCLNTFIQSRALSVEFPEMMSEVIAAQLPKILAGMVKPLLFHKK

In a further assay the target is Cannabinoid receptor 1 (Homo sapiens, UniProt P21554).
Cannabinoid receptor 1, sequence (P21554 whole entry): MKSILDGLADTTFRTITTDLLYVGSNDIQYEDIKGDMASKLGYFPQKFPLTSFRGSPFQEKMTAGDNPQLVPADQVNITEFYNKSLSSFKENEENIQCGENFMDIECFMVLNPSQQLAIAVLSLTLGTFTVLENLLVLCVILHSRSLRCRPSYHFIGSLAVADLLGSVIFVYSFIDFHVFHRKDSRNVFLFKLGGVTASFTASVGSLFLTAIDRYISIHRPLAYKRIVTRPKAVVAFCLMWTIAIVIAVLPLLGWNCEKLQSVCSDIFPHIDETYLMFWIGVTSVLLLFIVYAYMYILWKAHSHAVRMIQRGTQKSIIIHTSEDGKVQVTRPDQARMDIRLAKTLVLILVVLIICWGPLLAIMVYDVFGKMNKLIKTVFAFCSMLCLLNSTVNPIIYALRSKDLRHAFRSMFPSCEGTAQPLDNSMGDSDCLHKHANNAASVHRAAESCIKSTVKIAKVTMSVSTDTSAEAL
The target of assay [1] is T2, Cholecystokinin receptor type A (Homo sapiens, UniProt P32238).
T2 sequence (P32238 whole entry): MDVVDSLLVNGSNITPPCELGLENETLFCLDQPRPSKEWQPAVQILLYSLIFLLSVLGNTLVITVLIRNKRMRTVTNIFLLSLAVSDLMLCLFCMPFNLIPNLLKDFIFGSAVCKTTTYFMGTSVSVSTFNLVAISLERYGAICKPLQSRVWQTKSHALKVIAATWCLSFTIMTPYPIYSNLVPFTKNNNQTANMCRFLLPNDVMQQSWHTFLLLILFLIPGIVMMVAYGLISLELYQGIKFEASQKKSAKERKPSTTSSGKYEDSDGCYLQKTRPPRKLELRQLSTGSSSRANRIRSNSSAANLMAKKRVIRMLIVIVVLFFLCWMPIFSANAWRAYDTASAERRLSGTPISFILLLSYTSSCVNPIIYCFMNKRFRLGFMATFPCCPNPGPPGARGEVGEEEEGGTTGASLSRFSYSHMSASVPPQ

The target in assay [2] is T3, Type-1 angiotensin II receptor (Homo sapiens, UniProt P30556).
T3 sequence (P30556 whole entry): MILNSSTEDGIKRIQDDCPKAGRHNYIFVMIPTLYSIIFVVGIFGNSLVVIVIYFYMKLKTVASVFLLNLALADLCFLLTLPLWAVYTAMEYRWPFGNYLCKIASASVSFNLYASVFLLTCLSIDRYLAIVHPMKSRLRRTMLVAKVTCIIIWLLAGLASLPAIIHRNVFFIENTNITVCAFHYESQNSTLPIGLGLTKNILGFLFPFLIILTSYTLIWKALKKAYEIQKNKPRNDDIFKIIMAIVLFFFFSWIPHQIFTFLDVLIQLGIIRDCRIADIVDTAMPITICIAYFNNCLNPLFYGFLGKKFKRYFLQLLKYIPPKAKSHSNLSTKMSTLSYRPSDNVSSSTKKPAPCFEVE

A further assay concerns the target T4, B1 bradykinin receptor (Homo sapiens, UniProt P46663).
T4 sequence (P46663 whole entry): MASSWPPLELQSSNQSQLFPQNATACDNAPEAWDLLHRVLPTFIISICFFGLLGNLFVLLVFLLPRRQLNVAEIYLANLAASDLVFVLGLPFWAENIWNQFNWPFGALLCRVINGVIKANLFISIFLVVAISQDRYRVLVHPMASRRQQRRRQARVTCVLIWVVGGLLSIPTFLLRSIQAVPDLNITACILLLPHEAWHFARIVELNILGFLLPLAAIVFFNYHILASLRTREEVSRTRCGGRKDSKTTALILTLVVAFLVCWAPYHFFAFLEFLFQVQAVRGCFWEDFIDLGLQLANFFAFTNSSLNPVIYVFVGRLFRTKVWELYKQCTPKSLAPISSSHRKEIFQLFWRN

A further assay deals with T5, Estrogen receptor (Homo sapiens, UniProt P03372).
T5 sequence (P03372 whole entry): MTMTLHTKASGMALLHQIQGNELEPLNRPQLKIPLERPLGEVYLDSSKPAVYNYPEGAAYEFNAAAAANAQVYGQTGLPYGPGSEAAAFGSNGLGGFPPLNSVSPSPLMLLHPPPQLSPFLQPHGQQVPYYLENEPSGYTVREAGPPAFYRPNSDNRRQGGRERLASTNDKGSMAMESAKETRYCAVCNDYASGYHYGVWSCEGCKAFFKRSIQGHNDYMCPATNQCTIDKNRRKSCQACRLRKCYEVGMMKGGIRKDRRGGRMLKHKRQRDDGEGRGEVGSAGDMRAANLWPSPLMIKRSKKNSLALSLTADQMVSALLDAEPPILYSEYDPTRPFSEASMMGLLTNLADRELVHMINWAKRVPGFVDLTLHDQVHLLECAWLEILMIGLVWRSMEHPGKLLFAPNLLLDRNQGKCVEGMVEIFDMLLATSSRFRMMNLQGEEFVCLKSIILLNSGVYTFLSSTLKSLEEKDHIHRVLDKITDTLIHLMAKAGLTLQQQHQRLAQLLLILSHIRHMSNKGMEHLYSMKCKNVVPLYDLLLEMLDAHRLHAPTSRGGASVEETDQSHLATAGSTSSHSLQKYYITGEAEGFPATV

Assay [3] has as its target Voltage-dependent L-type calcium channel subunit alpha-1C (Rattus norvegicus, UniProt P22002). The format is functional.
The next assay concerns the target D(3) dopamine receptor (Homo sapiens, UniProt P35462).
Further: assay procedure not described here.

Voltage-dependent L-type calcium channel subunit alpha-1C, sequence (P22002 whole entry): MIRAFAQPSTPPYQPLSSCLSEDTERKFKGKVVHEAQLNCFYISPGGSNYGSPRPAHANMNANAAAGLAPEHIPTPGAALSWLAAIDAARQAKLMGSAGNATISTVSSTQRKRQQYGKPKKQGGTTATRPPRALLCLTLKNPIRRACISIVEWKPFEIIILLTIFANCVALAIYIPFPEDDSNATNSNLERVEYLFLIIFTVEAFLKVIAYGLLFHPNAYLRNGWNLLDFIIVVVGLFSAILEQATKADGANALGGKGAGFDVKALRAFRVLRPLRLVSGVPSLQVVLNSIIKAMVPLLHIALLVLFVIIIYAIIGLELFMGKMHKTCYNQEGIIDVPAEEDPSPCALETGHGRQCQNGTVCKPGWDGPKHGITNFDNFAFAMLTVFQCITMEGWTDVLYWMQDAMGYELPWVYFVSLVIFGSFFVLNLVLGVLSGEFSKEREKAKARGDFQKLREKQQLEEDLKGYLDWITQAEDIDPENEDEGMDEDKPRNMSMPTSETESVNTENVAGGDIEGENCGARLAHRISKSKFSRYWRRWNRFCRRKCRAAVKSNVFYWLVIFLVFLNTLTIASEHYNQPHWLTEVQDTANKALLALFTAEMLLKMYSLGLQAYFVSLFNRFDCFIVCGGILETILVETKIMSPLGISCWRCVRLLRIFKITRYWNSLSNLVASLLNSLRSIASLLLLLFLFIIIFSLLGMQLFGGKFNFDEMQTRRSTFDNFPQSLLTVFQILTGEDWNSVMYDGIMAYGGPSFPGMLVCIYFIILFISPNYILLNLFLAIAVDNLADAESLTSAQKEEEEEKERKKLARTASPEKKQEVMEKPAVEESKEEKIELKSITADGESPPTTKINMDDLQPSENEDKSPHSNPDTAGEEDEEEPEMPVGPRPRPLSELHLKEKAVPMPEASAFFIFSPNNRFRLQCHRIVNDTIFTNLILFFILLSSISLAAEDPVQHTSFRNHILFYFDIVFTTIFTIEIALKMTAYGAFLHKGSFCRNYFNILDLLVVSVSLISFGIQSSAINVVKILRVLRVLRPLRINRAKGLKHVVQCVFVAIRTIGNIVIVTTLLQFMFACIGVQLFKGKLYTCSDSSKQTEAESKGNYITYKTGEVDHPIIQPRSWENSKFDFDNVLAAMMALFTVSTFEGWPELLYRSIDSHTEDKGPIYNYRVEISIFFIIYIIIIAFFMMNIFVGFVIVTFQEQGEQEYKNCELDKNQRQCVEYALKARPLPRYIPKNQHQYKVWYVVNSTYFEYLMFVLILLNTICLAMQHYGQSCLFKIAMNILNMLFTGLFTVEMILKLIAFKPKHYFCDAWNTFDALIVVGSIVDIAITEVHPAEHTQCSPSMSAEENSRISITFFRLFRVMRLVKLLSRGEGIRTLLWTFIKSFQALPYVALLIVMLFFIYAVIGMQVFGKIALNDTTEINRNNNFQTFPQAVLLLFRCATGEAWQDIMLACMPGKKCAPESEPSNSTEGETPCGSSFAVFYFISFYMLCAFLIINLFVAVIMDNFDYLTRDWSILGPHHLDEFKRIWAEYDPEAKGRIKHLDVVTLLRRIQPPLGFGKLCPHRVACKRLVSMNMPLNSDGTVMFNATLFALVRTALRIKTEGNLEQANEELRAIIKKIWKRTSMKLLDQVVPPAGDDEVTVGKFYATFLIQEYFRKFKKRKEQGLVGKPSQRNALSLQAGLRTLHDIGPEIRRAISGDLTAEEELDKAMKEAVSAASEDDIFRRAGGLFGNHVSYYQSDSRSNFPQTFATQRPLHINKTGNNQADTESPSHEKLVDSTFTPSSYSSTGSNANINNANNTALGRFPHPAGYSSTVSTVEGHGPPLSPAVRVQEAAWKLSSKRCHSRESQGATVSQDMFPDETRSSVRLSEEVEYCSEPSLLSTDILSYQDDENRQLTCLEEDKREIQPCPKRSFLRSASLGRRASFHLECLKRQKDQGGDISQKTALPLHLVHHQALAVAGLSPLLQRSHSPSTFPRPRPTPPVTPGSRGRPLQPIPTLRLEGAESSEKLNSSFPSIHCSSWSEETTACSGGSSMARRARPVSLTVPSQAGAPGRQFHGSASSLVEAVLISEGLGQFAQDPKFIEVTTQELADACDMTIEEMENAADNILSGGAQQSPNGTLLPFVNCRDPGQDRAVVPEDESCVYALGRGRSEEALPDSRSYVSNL
D(3) dopamine receptor, sequence (P35462 whole entry): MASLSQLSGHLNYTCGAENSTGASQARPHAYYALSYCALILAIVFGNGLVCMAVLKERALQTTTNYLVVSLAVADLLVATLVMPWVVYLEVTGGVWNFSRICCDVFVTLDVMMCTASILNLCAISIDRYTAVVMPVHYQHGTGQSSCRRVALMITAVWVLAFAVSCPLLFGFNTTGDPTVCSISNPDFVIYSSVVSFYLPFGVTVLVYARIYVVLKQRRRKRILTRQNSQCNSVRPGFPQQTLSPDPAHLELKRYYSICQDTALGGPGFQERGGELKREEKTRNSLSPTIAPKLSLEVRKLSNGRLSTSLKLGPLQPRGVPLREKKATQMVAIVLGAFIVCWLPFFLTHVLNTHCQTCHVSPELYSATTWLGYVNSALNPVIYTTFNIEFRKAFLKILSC

Take `CCOc1nc2cccc(C(=O)O)c2n1Cc1ccc(-c2ccccc2-c2nnn[nH]2)cc1`: the AC50 on Progesterone receptor was greater than 30 µM; at Cannabinoid receptor 1 it was greater than 10 µM; in assay [1], greater than 30 µM; in assay [2], 0.0005 µM; on B1 bradykinin receptor it was greater than 30 µM; on Estrogen receptor it was greater than 30 µM. In addition, the results for the AC50 (in assay [3]; on D(3) dopamine receptor) were greater than 10 µM and greater than 30 µM, respectively.

As for `CCCc1nc2c(C)cc(-c3nc4ccccc4n3C)cc2n1Cc1ccc(-c2ccccc2C(=O)O)cc1`, the AC50 at Progesterone receptor was greater than 30 µM; at Cannabinoid receptor 1 it was greater than 30 µM; in assay [1], 2.43 µM; at B1 bradykinin receptor, greater than 30 µM; at Estrogen receptor, greater than 30 µM; in assay [3], greater than 30 µM. The compound also registered an AC50 at D(3) dopamine receptor greater than 30 µM.

For `CCCNC(=O)NS(=O)(=O)c1ccc(Cl)cc1` [CHLORPROPAMIDE], the AC50 was greater than 30 µM on Progesterone receptor; greater than 10 µM on Cannabinoid receptor 1; greater than 30 µM in assay [1]; greater than 30 µM in assay [2]; greater than 30 µM on B1 bradykinin receptor; greater than 30 µM on Estrogen receptor. The AC50 in assay [3] was greater than 10 µM; on D(3) dopamine receptor, greater than 30 µM.

As to `Cc1nc(Nc2ncc(C(=O)Nc3c(C)cccc3Cl)s2)cc(N2CCN(CCO)CC2)n1` [DASATINIB], the AC50 on Progesterone receptor was greater than 30 µM; at Cannabinoid receptor 1 it was greater than 10 µM; in assay [1] it was 10.2 µM; in assay [2], greater than 30 µM; at B1 bradykinin receptor, greater than 10 µM; in assay [3] it was greater than 10 µM. The same compound gave an AC50 at D(3) dopamine receptor greater than 30 µM.

Consider `O=C(O)Cc1ccccc1Nc1c(Cl)cccc1Cl` [DICLOFENAC], for which the AC50 at Progesterone receptor was greater than 30 µM; at Cannabinoid receptor 1, greater than 10 µM; in assay [1], greater than 30 µM; in assay [2] it was greater than 30 µM; on B1 bradykinin receptor it was greater than 30 µM; in assay [3] it was greater than 10 µM. Also, on D(3) dopamine receptor, the AC50 was greater than 10 µM.

As to `O=C(O)Cc1ccccc1Oc1ccc(Cl)cc1Cl` [FENCLOFENAC], the AC50 at Progesterone receptor is greater than 30 µM; at Cannabinoid receptor 1 it was greater than 10 µM; in assay [1], greater than 30 µM; in assay [2], greater than 30 µM; on B1 bradykinin receptor, greater than 30 µM; on Estrogen receptor it was greater than 30 µM. In addition, the concentration at half-maximal activity (AC50) (in assay [3]; at D(3) dopamine receptor) was greater than 10 µM in each case.

Regarding `Cc1ccc(C)c(OCCCC(C)(C)C(=O)O)c1` [GEMFIBROZIL], the AC50 at Progesterone receptor was greater than 30 µM; at Cannabinoid receptor 1, greater than 10 µM; in assay [1], greater than 30 µM; in assay [2] it was greater than 30 µM; on B1 bradykinin receptor it was greater than 30 µM; at Estrogen receptor, greater than 30 µM. Further, the AC50 (in assay [3]; on D(3) dopamine receptor) was greater than 10 µM in each case.

As to `CC[C@H](C)C(=O)O[C@H]1C[C@@H](C)C=C2C=C[C@H](C)[C@H](CC[C@@H]3C[C@@H](O)CC(=O)O3)[C@H]21` [LOVASTATIN], the AC50 on Progesterone receptor is 29.7 µM; on Cannabinoid receptor 1, greater than 10 µM; in assay [1], greater than 30 µM; in assay [2] it was 39.8 µM; at B1 bradykinin receptor it was greater than 30 µM; on Estrogen receptor it was greater than 30 µM. Further, the AC50 (in assay [3]; at D(3) dopamine receptor) was greater than 10 µM in each case.

`CC[C@@H](CO)NC(=O)[C@@H]1C=C2c3cccc4c3c(cn4C)C[C@H]2N(C)C1` [METHYSERGIDE]: the AC50 on Progesterone receptor was 16 µM; on Cannabinoid receptor 1, greater than 10 µM; in assay [1], greater than 30 µM; in assay [2], greater than 30 µM; at B1 bradykinin receptor, greater than 30 µM; at Estrogen receptor, greater than 10 µM. Moreover, the AC50 in assay [3] is greater than 10 µM; at D(3) dopamine receptor, 0.42 µM.

Turning to `CC(CN1c2ccccc2Sc2ccccc21)N(C)C` (centres undefined) [PROMETHAZINE], the AC50 was greater than 30 µM at Progesterone receptor; greater than 10 µM on Cannabinoid receptor 1; greater than 30 µM in assay [1]; greater than 30 µM in assay [2]; greater than 30 µM on B1 bradykinin receptor; greater than 10 µM in assay [3]. On D(3) dopamine receptor, this compound had a half-maximal activity concentration (AC50) of 0.28 µM.

As to `CN(CCOc1ccc(CC2SC(=O)NC2=O)cc1)c1ccccn1` (centres undefined) [ROSIGLITAZONE], the AC50 is greater than 30 µM on Progesterone receptor; 16 µM at Cannabinoid receptor 1; greater than 30 µM in assay [1]; 18 µM in assay [2]; greater than 30 µM at B1 bradykinin receptor; greater than 30 µM at Estrogen receptor. Moreover, the AC50 (in assay [3]; on D(3) dopamine receptor) was greater than 30 µM each time.

As to `CC(C)[C@H](N)C(=O)OCCOCn1cnc2c(=O)[nH]c(N)nc21` [VALACYCLOVIR], the AC50 at Progesterone receptor is greater than 30 µM; at Cannabinoid receptor 1 it was greater than 10 µM; in assay [1] it was greater than 30 µM; in assay [2] it was greater than 30 µM; at B1 bradykinin receptor, greater than 30 µM; on Estrogen receptor it was greater than 30 µM. Further, the AC50 (in assay [3]; on D(3) dopamine receptor) was greater than 10 µM in each case.

As to `O=C1Cc2cc(CCN3CCN(c4nsc5ccccc45)CC3)c(Cl)cc2N1` [ZIPRASIDONE], the half-maximal activity concentration (AC50) at Progesterone receptor is 21.8 µM; at Cannabinoid receptor 1 it was greater than 10 µM; in assay [1], greater than 30 µM; in assay [2], greater than 30 µM; on B1 bradykinin receptor, greater than 30 µM; on Estrogen receptor, greater than 30 µM. Also, the AC50 in assay [3] was greater than 10 µM.
